Experiments:
Type in all cases: in vivo
[1] = test system: adult unfed cat fleas (Ctenocephalides felis); assay: Ctenocephalides felis oral test; settings: 48 h, 100 ppm in citrated cattle blood, after 2 days
Procedure: Ctenocephalides felis—Oral Test
(§1) Solvent: Dimethyl Sulfoxide
To produce a suitable preparation of active compound, 10 mg of active compound are dissolved in 0.5 mL solvent, and the concentrate is diluted with citrated cattle blood to the desired concentration.
Approximately 20 adult unfed cat fleas (Ctenocephalides felis) are placed in a flea chamber whose top and bottom is covered with gauze. A chamber whose bottom is sealed with parafilm, is filled with the blood-compound solution and placed on top of the flea chamber, so that the fleas can suck the blood. The blood chamber is heated to 37° C. whereas the flea chamber is kept at room temperature.
After 2 days mortality in % is determined. 100% means all the fleas have been killed; 0% means none of the fleas have been killed.

[2] = test system: Rhipicephalus (Boophilus) microplus larvae (strain Parkhurst, resistant against synthetic pyrethroids); assay: Rhipicephalus (Boophilus) microplus in-vitro contact test, larval cattle tick; settings: Rhipicephalus microplus; 1 μg/cm^2 (=100 g/ha), after 48 hours; read-out: efficacy (larvae dead or moribund)
Procedure: Rhipicephalus (Boophilus) Microplus—In-Vitro Contact Tests Larval Cattle Tick (Strain Parkhurst, Resistant Against Synthetic Pyrethroids
(§2) 9 mg compound is solved in 1 mL acetone and diluted with acetone to the desired concentration. 250 μL of the test solution is filled in 25 mL glass test tubes and homogeneously distributed on the inner walls by rotation and tilting on a shaking device (2 h at 30 rpm). With a compound concentration of 900 ppm, an inner surface of 44.7 cm^2 and a homogeneous distribution, a dose of 5 μg/cm^2 is achieved.
After the solvent has evaporated, each test tube is filled with 20-50 cattle tick larvae (Rhipicephalus microplus), closed with a perforated lid and incubated in a horizontal position at 85% relative humidity and 27° C. in an incubator. After 48 hours efficacy is determined. The larvae are patted on the ground of the tubes and negative geotactic behavior is recorded.

[3] = test system: adult brown dog ticks (Rhipicephalus sanguineus); assay: Rhipicephalus sanguineus in-vitro contact test, adult brown dog ticks; settings: Rhipicephalus sanguineus; 1 μg/cm^2 (=100 g/ha), after 48 hours; read-out: efficacy (ticks dead or moribund)
Procedure: Rhipicephalus sanguineus—In-Vitro Contact Tests with Adult Brown Dog Ticks
as §2
After the solvent has evaporated, each test tube is filled with 5-10 adult brown dog ticks (Rhipicephalus sanguineus), closed with a perforated lid and incubated in a lying position at room temperature and relative humidity. After 48 hours efficacy is determined. The ticks are patted on the ground of the tubes and are incubated on a heating plate at 45-50° C. for at most 5 minutes. Immotile or uncoordinated moving ticks, which are not able to escape the heat by climbing upwards, are marked as dead or moribund.
An efficacy of 100% means all ticks are dead or moribund; 0% means no ticks are dead or moribund.

[4] = test system: fall armyworm larvae (Spodoptera frugiperda); assay: Spodoptera frugiperda spray test (SPODFR); settings: in Zea mays, 168 h
Procedure: Spodoptera frugiperda—Spray Test
(§3) Solvent: 78.0 parts by weight acetone • 1.5 parts by weight dimethylformamide
(§4) Emulsifier: alkylarylpolyglycol ether
(§5) To produce a suitable preparation of active compound, 1 part by weight of active compound is mixed with the stated amount of solvents and is diluted with water, containing an emulsifier concentration of 1000 ppm, to the desired concentration. Further test concentrations are prepared by dilution with emulsifier containing water.
Maize (Zea mays) leaf sections are sprayed with a preparation of the active ingredient of the desired concentration. Once dry, the leaf sections are infested with fall armyworm larvae (Spodoptera frugiperda).
After 7 days mortality in % is determined. 100% means all caterpillars have been killed and 0% means none of the caterpillars have been killed.
Spodoptera frugiperda—Spray Test (SPODFR
After the specified period of time, mortality in % is determined. 100% means all caterpillars have been killed and 0% means none of the caterpillars have been killed.

[5] = test system: brown planthopper (Nilaparvata lugens); assay: Nilaparvata lugens spray test; settings: Nilaparvata lugens, in Oryza sativa, 96 h
Procedure: Nilaparvata lugens—Spray Test
(§6) Solvent: 78.0 parts by weight of acetone • • 1.5 parts by weight of dimethylformamide
as §4, §5
Rice plants (Oryza sativa) are sprayed with a preparation of the active ingredient of the desired concentration and the plants are infested with the brown planthopper (Nilaparvata lugens).
After 4 days mortality in % is determined. 100% means all planthoppers have been killed and 0% means none of the planthoppers have been killed.

[6] = test system: adult engorged female ticks (Rhipicephalus microplus); assay: Rhipicephalus (Boophilus) microplus injection test; settings: 4 μg/tick, after 7 days
Procedure: Rhipicephalus (Boophilus) Microplus—Injection Test
as §1
To produce a suitable preparation of active compound, 10 mg of active compound are dissolved in 0.5 mL solvent, and the concentrate is diluted with solvent to the desired concentration.
Five adult engorged female ticks (Rhipicephalus microplus) are injected with 1 μL compound solution into the abdomen. The ticks are transferred into replica plates and incubated in a climate chamber.
After 7 days egg deposition of fertile eggs is monitored. Eggs where fertility is not visible are stored in a climate chamber till hatching after about 42 days. An efficacy of 100% means all eggs are infertile; 0% means all eggs are fertile.

[7] = test system: adult cat fleas (Ctenocephalides felis); assay: Ctenocephalides felis in-vitro contact test, adult cat flea; settings: Ctenocephalides felis; 1 μg/cm^2 (=100 g/ha), after 48 hours; read-out: efficacy (fleas dead or moribund)
Procedure: Ctenocephalides Felis—In-Vitro Contact Tests Adult Cat Flea
as §2
After the solvent has evaporated, each test tube is filled with 5-10 adult cat fleas (Ctenocephalides felis), closed with a perforated lid and incubated in a lying position at room temperature and relative humidity. After 48 hours efficacy is determined. The fleas are patted on the ground of the tubes and are incubated on a heating plate at 45-50° C. for at most 5 minutes. Immotile or uncoordinated moving fleas, which are not able to escape the heat by climbing upwards, are marked as dead or moribund.
An efficacy of 100% means all fleas are dead or moribund; 0% means no fleas are dead or moribund.

[8] = test system: green peach aphid (Myzus persicae); assay: Myzus persicae spray test (MYZUPE); settings: 120 h; for mortality at 100 g/ha: in Brassica rapa, foliar
Procedure: Myzus persicae—Spray Test
as §3, §4, §5
Chinese cabbage (Brassica pekinensis) leaf disks infected with all instars of the green peach aphid (Myzus persicae), are sprayed with a preparation of the active ingredient of the desired concentration.
After 5 days mortality in % is determined. 100% means all aphids have been killed and 0% means none of the aphids have been killed.
Myzus persicae—Spray Test (MYZUPE
After the specified period of time, mortality in % is determined. 100% means all aphids have been killed and 0% means none of the aphids have been killed.

[9] = test system: larvae of the southern green stink bug (Nezara viridula); assay: Nezara viridula spray test; settings: Nezara viridula, in Hordeum vulgare, 96 h
Procedure: Nezara viridula—Spray Test
as §6, §4
(§7) To produce a suitable preparation of active compound, 1 part by weight of active compound is mixed with the stated amount of solvent, and the concentrate is diluted with water, containing an emulsifier concentration of 1000 ppm, to the desired concentration. Further test concentrations are prepared by dilution with emulsifier containing water.
Barley plants (Hordeum vulgare) are sprayed with a test solution containing the desired concentration of the active ingredient and are infested with larvae of the southern green stink bug (Nezara viridula).
After 4 days mortality in % is determined. 100% means all the stink bugs have been killed; 0% means none of the stink bugs have been killed.

[10] = test system: larvae of the banded cucumber beetle (Diabrotica balteata); assay: Diabrotica balteata spray test; settings: Diabrotica balteata, 168 h; 100 g/ha (=32 μg/well), wheat seeds, after 7 days; read-out: efficacy (seedlings grown)
Procedure: Diabrotica balteata—Spray Test
as §6, §4, §7
Soaked wheat seeds (Triticum aestivum) are placed in a multiple well plate filled with agar and some water and are incubated for 1 day to germinate (5 seeds per well). The germinated wheat seeds are sprayed with a test solution containing the desired concentration of the active ingredient. Afterwards each unit is infected with 10-20 larvae of the banded cucumber beetle (Diabrotica balteata).
After 7 days efficacy in % is determined. 100% means all the seedlings have grown up like in the untreated, uninfected control; 0% means none of the seedlings have grown.

CCN(C)C(=O)c1cnc(-n2ncnc2[C@H](C)NC(=O)c2cc(C(F)(F)F)cc(C(F)(F)F)c2)cn1 [Example I-006]
mortality at 100 ppm [1]: 100%
pest or weed control at 1 µg/cm2 [2]: 100%
pest or weed control at 1 µg/cm2, 100 g/ha [3]: 100%
mortality at 100 g/ha [4]: 100%
mortality at 500 g/ha [5]: 100%
efficacy (infertile eggs) [6]: 100%
pest or weed control at 1 µg/cm2 [7]: 100%
mortality at 100 g/ha [8]: 100%

Cc1nc([C@H](C)NC(=O)c2cc(C(F)(F)F)cc(C(F)(F)F)c2)n(-c2cnc(C(N)=O)cn2)n1 [Example I-012]
pest or weed control at 1 µg/cm2 [2]: 100%
pest or weed control at 1 µg/cm2, 100 g/ha [3]: 100%
mortality at 100 g/ha [4]: 100%
mortality at 500 g/ha [5]: 100%
mortality at 500 g/ha [9]: 100%
mortality at 100 g/ha [8]: 100%

C[C@H](NC(=O)c1cc(C(F)(F)F)cc(C(F)(F)F)c1)c1ncnn1-c1cnc(C(=O)N(C)C)cn1 [Example I-005]
mortality at 100 ppm [1]: 100%
pest or weed control at 1 µg/cm2 [2]: 100%
pest or weed control at 1 µg/cm2, 100 g/ha [3]: 100%
mortality at 100 g/ha [4]: 100%
mortality at 500 g/ha [5]: 100%
efficacy (infertile eggs) [6]: 100%
pest or weed control at 1 µg/cm2 [7]: 100%
mortality at 100 g/ha [8]: 100%

Cc1nc([C@H](C)NC(=O)c2cc(C(F)(F)F)cc(C(F)(F)F)c2)n(-c2cnc(C(=O)N(C)C)cn2)n1 [Example I-015]
pest or weed control at 1 µg/cm2 [2]: 100%
pest or weed control at 1 µg/cm2, 100 g/ha [3]: 100%
mortality at 100 g/ha [4]: 100%
mortality at 500 g/ha [5]: 100%
mortality at 500 g/ha [9]: 100%
pest or weed control at 1 µg/cm2 [7]: 100%
mortality at 100 g/ha [8]: 90%

C[C@H](NC(=O)c1cc(OC(F)(F)F)cc(C2CC2)c1)c1ncnn1-c1cnc(C(=O)N(C)C2CC2)cn1 [Example I-003]
mortality at 100 ppm [1]: 100%
pest or weed control at 1 µg/cm2 [2]: 100%
pest or weed control at 1 µg/cm2, 100 g/ha [3]: 80%
mortality at 100 g/ha [4]: 100%
pest or weed control at 32 µg/disc, 100 g/ha [10]: 100%
efficacy (infertile eggs) [6]: 100%
pest or weed control at 1 µg/cm2 [7]: 100%
mortality at 100 g/ha [8]: 90%

Cc1nc([C@H](C)NC(=O)c2cc(OC(F)(F)F)cc(C3CC3)c2)n(-c2cnc(C(=O)N(C)C)cn2)n1 [Example I-047, 5-(5-{(1S)-1-[3-Cyclopropyl-5-(trifluoromethoxy)benzamido]ethyl}-3-methyl-1H-1,2,4-triazol-1-yl)-N,N-dimethylpyrazine-2-carboxamide]
pest or weed control at 1 µg/cm2 [2]: 100%
pest or weed control at 1 µg/cm2, 100 g/ha [3]: 100%
mortality at 100 g/ha [4]: 100%
mortality at 500 g/ha [5]: 100%
pest or weed control at 32 µg/disc, 100 g/ha [10]: 80%
mortality at 500 g/ha [9]: 100%
pest or weed control at 1 µg/cm2 [7]: 100%
mortality at 100 g/ha [8]: 90%

CCN(C)C(=O)c1cnc(-n2nc(C)nc2[C@H](C)NC(=O)c2cc(C(F)(F)F)cc(C(F)(F)F)c2)cn1 [Example I-016]
pest or weed control at 1 µg/cm2 [2]: 100%
pest or weed control at 1 µg/cm2, 100 g/ha [3]: 100%
mortality at 100 g/ha [4]: 100%
mortality at 500 g/ha [5]: 100%
mortality at 500 g/ha [9]: 100%
pest or weed control at 1 µg/cm2 [7]: 100%
mortality at 100 g/ha [8]: 100%

Cc1nc([C@H](C)NC(=O)c2cc(C(F)(F)F)cc(C(F)(F)F)c2)n(-c2cnc(C(=O)NC3CC3)cn2)n1 [Example I-014]
pest or weed control at 1 µg/cm2 [2]: 100%
pest or weed control at 1 µg/cm2, 100 g/ha [3]: 100%
mortality at 100 g/ha [4]: 100%
mortality at 500 g/ha [5]: 100%
mortality at 500 g/ha [9]: 90%
mortality at 100 g/ha [8]: 90%

C[C@H](NC(=O)c1cc(OC(F)(F)F)cc(S(C)(=O)=O)c1)c1ncnn1-c1cnc(C(=O)N(C)C)cn1 [Example I-017]
pest or weed control at 1 µg/cm2 [2]: 100%
pest or weed control at 1 µg/cm2, 100 g/ha [3]: 100%
mortality at 500 g/ha [5]: 100%
pest or weed control at 32 µg/disc, 100 g/ha [10]: 100%
mortality at 500 g/ha [9]: 100%
pest or weed control at 1 µg/cm2 [7]: 100%
Emax at 4 g/ha ([8]; MYZUPE, 4 g ai/ha, 5 dat, read-out: % Efficacy): 70%
Emax at 20 g/ha ([8]; MYZUPE, 20 g ai/ha, 5 dat, read-out: % Efficacy): 90%
Emax at 100 g/ha ([8]; MYZUPE, 100 g ai/ha, 5 dat, read-out: % Efficacy): 100%
mortality at 100 g/ha [8]: 100%

From patent publication US20240368125A1, “NOVEL PYRAZINYL-TRIAZOLE COMPOUNDS AS PESTICIDES” (Bayer Aktiengesellschaft, priority 2021, published 2024)
